Measurements published in patent US20080249042A1, “All-Trans-Retinol: All-Trans-13,14-Dihydroretinol Saturase and Methods of Its Use” (UNIVERSITY OF WASHINGTON, priority 2004, published 2008).

Experiments:
CYP26B1 = target: T1, CYP26B1 (Mus musculus, UniProt Q811W2); conditions: 0.1 mM, 4 h, cells in culture
T1 sequence (Q811W2 1-512): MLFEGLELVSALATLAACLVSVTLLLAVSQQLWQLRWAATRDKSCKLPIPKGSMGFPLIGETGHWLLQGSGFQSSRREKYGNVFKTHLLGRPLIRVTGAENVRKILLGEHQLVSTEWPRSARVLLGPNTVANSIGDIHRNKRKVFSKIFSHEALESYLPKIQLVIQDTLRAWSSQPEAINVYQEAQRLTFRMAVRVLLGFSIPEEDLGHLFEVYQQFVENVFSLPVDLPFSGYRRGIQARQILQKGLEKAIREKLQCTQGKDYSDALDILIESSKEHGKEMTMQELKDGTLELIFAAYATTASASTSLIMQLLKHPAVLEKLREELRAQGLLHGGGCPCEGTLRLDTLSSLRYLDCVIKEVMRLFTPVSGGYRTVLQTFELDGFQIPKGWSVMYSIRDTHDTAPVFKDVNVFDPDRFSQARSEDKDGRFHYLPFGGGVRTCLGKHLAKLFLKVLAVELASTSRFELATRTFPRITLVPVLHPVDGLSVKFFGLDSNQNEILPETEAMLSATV
Experimental: (§1) CYP26A1 Oxidation Assay. […] After 24 h, the transfected cells were split into 12-well plates to ensure an equal number of transfected cells in each assay well. […] The peaks were identified based on their spectra and coelution with standards. The cell lysate was examined for expression of CYP26A1, -B1, and -C1 by SDS-PAGE and immunoblotting of the V5 epitope-tagged recombinant protein using an anti-V5 epitope monoclonal antibody (Invitrogen).

CYP26C1 = target: T2, CYP26C1 (Mus musculus, UniProt B2RXA7); conditions: 0.1 mM, 4 h, cells in culture
T2 sequence (B2RXA7 1-518): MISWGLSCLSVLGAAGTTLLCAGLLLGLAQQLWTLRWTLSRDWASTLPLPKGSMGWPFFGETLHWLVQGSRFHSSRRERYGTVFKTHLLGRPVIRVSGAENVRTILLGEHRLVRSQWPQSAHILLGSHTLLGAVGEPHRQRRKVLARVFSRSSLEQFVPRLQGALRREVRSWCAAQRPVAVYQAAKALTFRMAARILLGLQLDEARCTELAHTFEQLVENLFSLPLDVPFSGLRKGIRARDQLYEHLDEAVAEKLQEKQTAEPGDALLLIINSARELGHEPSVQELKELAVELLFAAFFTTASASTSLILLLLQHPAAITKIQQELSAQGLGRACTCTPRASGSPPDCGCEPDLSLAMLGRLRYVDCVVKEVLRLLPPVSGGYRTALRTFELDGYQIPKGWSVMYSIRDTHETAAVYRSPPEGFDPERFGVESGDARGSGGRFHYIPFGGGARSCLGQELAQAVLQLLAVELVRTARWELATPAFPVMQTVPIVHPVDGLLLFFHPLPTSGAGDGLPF
Experimental: as §1

prRDH = target: T3, prRDH (Homo sapiens, UniProt Q9NYR8); experiment: Oxidation by photoreceptor-specific RDH; format: biochemical; conditions: results not shown
T3 sequence (Q9NYR8 1-311): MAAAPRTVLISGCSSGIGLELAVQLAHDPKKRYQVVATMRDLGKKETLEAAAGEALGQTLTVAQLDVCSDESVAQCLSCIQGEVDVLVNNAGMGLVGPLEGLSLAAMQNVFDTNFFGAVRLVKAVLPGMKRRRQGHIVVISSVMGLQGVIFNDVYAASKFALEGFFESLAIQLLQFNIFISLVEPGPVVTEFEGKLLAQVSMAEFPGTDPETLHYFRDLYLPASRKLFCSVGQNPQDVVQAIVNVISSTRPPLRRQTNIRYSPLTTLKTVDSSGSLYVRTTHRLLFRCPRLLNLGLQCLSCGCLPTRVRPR

RDH12 = target: T4, RDH12 (Homo sapiens, UniProt Q96NR8); experiment: Oxidation by RDH12; format: biochemical; conditions: results not shown
T4 sequence (Q96NR8 1-316): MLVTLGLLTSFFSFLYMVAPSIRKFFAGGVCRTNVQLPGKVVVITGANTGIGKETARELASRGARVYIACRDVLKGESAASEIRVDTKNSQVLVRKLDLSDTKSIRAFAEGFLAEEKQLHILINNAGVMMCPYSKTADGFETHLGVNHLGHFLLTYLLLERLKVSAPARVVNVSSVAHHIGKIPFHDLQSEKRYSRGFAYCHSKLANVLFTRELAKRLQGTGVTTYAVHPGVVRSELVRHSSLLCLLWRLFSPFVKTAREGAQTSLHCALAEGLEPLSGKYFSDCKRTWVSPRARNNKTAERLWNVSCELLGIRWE

mouse RetSat = target: T5, mouse RetSat (Mus musculus, UniProt Q64FW2); experiment: RetSat saturase activity in Tet-induced HEKK-RetSat cells; format: cell-based; conditions: 40 μM substrate, overnight incubation
T5 construct: expressed in transfected cells
T5 sequence (Q64FW2 26-609): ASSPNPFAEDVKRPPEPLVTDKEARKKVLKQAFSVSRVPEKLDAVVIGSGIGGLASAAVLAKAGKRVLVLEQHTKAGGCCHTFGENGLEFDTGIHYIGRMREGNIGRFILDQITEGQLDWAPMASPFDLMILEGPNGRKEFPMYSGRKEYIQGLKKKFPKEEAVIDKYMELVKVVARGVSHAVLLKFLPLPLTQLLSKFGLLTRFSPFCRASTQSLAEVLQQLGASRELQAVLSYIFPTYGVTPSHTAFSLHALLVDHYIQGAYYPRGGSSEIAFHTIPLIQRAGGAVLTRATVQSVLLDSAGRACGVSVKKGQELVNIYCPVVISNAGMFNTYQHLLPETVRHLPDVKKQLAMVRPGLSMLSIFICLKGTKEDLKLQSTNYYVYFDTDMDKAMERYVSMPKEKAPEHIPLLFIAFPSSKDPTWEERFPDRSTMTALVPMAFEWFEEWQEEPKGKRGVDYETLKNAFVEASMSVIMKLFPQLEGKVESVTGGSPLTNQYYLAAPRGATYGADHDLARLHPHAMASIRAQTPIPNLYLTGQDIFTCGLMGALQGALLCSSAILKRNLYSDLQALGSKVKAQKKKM
Experimental: Enzyme assays of RetSat and CRTISO-catalyzed reactions. For enzyme assay, cells were seeded in six-well plates and expression of RetSat or CRTISO was induced with 1 μg/ml tetracycline 48 hr prior to analysis. Substrate preparation and addition were conducted under dim red light. Retinoid substrates were purified by HPLC as described above and dissolved in N,N-dimethylformamide (DMF) to a final concentration of 4 mM. Organic extract of tangerine tomatoes was dried under a stream of argon and resuspended in DMF. The substrates were diluted in 300 μl complete media (tetracycline 1 μg/ml) to a 40 μM final concentration, overlayed on cells, and incubated overnight in the dark at 37° C. in 5% CO2 and 100% humidity. Media and cells were collected by scraping, mixed with an equal volume of methanol. For retinol and dihydroretinol analysis the methanol:water mixture was extracted with two volumes of hexane, then the organic phase was dried, resuspended in hexane, and analyzed by normal-phase HPLC. […] For carotenoid analysis the organic phase was dried and resuspended in ethanol/tetrahydrofuran (9:1) and examined by reverse-phase HPLC System I. For retinoic acid analysis the 1:1 methanol:water mixture was acidified with 0.1 volumes of 12N HCl and extracted with 1 volume of chlorofom, dried and resuspended in ethanol and examined by reverse-phase HPLC System II.

Structure (SMILES) | Oxidation to polar metabolites by CYP26B1 (CYP26B1) | Oxidation to polar metabolites by CYP26C1 (CYP26C1) | Oxidation to the aldehyde by prRDH (prRDH) | Oxidation to the aldehyde by RDH12 (RDH12) | Saturation by RetSat (substrate activity) (mouse RetSat)
CC1=C(/C=C/C(C)=C/C=C/C(C)CC(=O)O)C(C)(C)CCC1 (stereo not drawn) [all-trans-DRA, all-trans-13,14-dihydroretinoic acid] | efficiently carried out the oxidation | efficiently carried out the oxidation | – | – | –
CC1=C(/C=C/C(C)=C/C=C/C(C)CCO)C(C)(C)CCC1 (stereo not drawn) [all-trans-DROL, all-trans-13,14-dihydroretinol] | – | – | much less so | much less so | –
CC1=C(/C=C/C(C)=C/C=C/C(C)=C/C(=O)O)C(C)(C)CCC1 [all-trans-RA, all-trans-retinoic acid, reference compound] | efficiently carried out the oxidation | efficiently carried out the oxidation | – | – | not substrate
CC1=C(/C=C/C(C)=C/C=C/C(C)=C/CO)C(C)(C)CCC1 [all-trans-ROL, all-trans-retinol] | – | – | active | active | good substrate
